Data: patent US20220071999A1, “DESIGN AND DISCOVERY OF BD OXIDASE INHIBITORS FOR THE TREATMENT OF MYCOBACTERIAL DISEASES” (UNIVERSITY OF NOTRE DAME DU LAC, priority 2018, published 2022)
Where two headings read alike, the source gives them in different places.

Assays:
[1] = tested on: Mycobacterium abscessus clinical specimens; test: checkerboard assay (MIC) against Mycobacterium abscessus clinical specimens; type: cell-based; settings: for MIC: Mycobacteroides abscessus; for Activity (effect on MICs in combination): ND-11992 with ND-11598
Method: ND-11992 (bd oxidase inhibitor) and ND-11598 (cyt-bc1:aa3 inhibitor) were evaluated against various Mycobacterium abscessus clinical specimens in a checkerboard assay. Additive effects on MICs were observed when both drugs were used in combination. MIC values are given in μg/mL.

[2] = tested on: Nontuberculous mycobacteria (NTM) clinical isolates of the Mycobacterium avium-intracellulare complex (MAIC); test: checkerboard assay (MIC) against NTM clinical isolates of the MAIC; type: cell-based; settings: for MIC: Mycobacterium avium-intracellulare
Method: ND-11992 (bd oxidase inhibitor) and ND-11598 (cyt-bc1:aa3 inhibitor) were evaluated against various Nontuberculous mycobacteria (NTM) clinical isolates of the Mycobacterium avium-intracellulare complex (MAIC) in a checkerboard assay. Additive and synergistic effects on MICs were observed when both drugs were used in combination. MIC values are given in μg/mL.

[3] = tested on: M. tuberculosis; test: acute murine model of M. tuberculosis infection, alone and in combination; type: in vivo
Method: ND-11992 (bd oxidase inhibitor) and Q203 (cyt-bc1:aa3 inhibitor) were evaluated in an acute murine model of M. tuberculosis infection alone and in combination. ND-11992 (10 mg/kg PO)+Q203 (5 mg/kg PO) results in bactericidal efficacy with 1.5 log 10 CFU drop in bacteria when dosed orally for 5 days. […] Both compounds were bacteriostatic when dosed alone as single agents.

Cc1ccn2c(C(=O)NCc3ccc(N4CCCN(c5ccc(C(F)(F)F)cc5)CC4)c(F)c3)c(C)nc2c1 [ND-11598]
MIC ([1]; M. abscessus Clinical Isolate #8, read-out: MIC ND-11598 alone): > 10 µg/mL | MIC ([1]; M. abscessus Clinical Isolate #8, with 5 μg/ml ND 11992, read-out: ND-11598 MIC with 5 μg/ml ND 11992): 5 µg/mL | MIC ([1]; M. abscessus Clinical Isolate #38, read-out: MIC ND-11598 alone): > 10 µg/mL | MIC ([1]; M. abscessus Clinical Isolate #38, with 5 μg/ml ND 11992, read-out: ND-11598 MIC with 5 μg/ml ND 11992): 5 µg/mL | MIC ([1]; M. abscessus Clinical Isolate #50, read-out: MIC ND-11598 alone): > 10 µg/mL | MIC ([1]; M. abscessus Clinical Isolate #50, with 5 μg/ml ND 11992, read-out: ND-11598 MIC with 5 μg/ml ND 11992): 10 µg/mL | MIC ([2]; NTM Clinical Isolate #25, read-out: MIC ND-11598 alone): 0.25 µg/mL | MIC ([2]; NTM Clinical Isolate #25, with 0.5 μg/ml ND 11992, read-out: ND-11598 MIC with 0.5 μg/ml ND 11992): 0.0156 µg/mL | MIC ([2]; NTM Clinical Isolate #50, read-out: MIC ND-11598 alone): 1 µg/mL | MIC ([2]; NTM Clinical Isolate #50, with 0.5 μg/ml ND 11992, read-out: ND-11598 MIC with 0.5 μg/ml ND 11992): 0.0156 µg/mL | MIC ([2]; NTM MAIC A5 (serotype 4), read-out: MIC ND-11598 alone): 1 µg/mL | MIC ([2]; NTM MAIC A5 (serotype 4), with 0.5 μg/ml ND 11992, read-out: ND-11598 MIC with 0.5 μg/ml ND 11992): 0.25 µg/mL | MIC ([2]; NTM MAIC Serovar #4, read-out: MIC ND-11598 alone): > 10 µg/mL | MIC ([2]; NTM MAIC Serovar #4, with 0.5 μg/ml ND 11992, read-out: ND-11598 MIC with 0.5 μg/ml ND 11992): 0.25 µg/mL | MIC ([2]; NTM MAIC Serovar #5, read-out: MIC ND-11598 alone): > 10 µg/mL | MIC ([2]; NTM MAIC Serovar #5, with 0.5 μg/ml ND 11992, read-out: ND-11598 MIC with 0.5 μg/ml ND 11992): 1 µg/mL | MIC ([2]; NTM MAIC Serovar #6, read-out: MIC ND-11598 alone): 0.0156 µg/mL | MIC ([2]; NTM MAIC Serovar #6, with ND-11992 at 1 (column head: 0.5 μg/ml), read-out: ND-11598 MIC with ND 11992): 0.0078 µg/mL | MIC ([2]; NTM MAIC Serovar #10, read-out: MIC ND-11598 alone): 10 µg/mL | MIC ([2]; NTM MAIC Serovar #10, with 0.5 μg/ml ND 11992, read-out: ND-11598 MIC with 0.5 μg/ml ND 11992): 0.25 µg/mL

FC(F)(F)c1ccc(Oc2ccc(Nc3ncnc4ccccc34)cc2)cc1 [ND-11992]
CFU drop ([3]; 10 mg/kg of ND-11992 alone): no CFU drop | type of efficacy (bactericidal/bacteriostatic) ([3]; combination ND-11992 10 mg/kg PO + Q203 5 mg/kg PO, 5 days): bactericidal | CFU drop in bacteria ([3]; combination ND-11992 10 mg/kg PO + Q203 5 mg/kg PO, dosed orally for 5 days): 1.5 log 10 CFU | type of efficacy (bactericidal/bacteriostatic) ([3]; dosed alone as single agents): bacteriostatic | MIC ([1]; M. abscessus Clinical Isolate #8, with 5 μg/ml of ND-11598, read-out: ND-11992 MIC with 5 μg/ml of ND-11598): 5 µg/mL | MIC ([1]; M. abscessus Clinical Isolate #38, with 5 μg/ml of ND-11598, read-out: ND-11992 MIC with 5 μg/ml of ND-11598): 5 µg/mL | MIC ([1]; M. abscessus Clinical Isolate #50, with 5 μg/ml of ND-11598, read-out: ND-11992 MIC with 5 μg/ml of ND-11598): 10 µg/mL | Activity (effect on MICs in combination) ([1]; M. abscessus Clinical Isolate #8): Additive | Activity (effect on MICs in combination) ([1]; M. abscessus Clinical Isolate #38): Additive | Activity (effect on MICs in combination) ([1]; M. abscessus Clinical Isolate #50): Additive | MIC ([2]; NTM Clinical Isolate #25, ND-11598 was only 0.125 μg/ml (column head: 0.5 μg/ml), read-out: ND-11992 MIC with ND-11598): 0.0625 µg/mL | MIC ([2]; NTM Clinical Isolate #50, with 0.5 μg/ml of ND-11598, read-out: ND-11992 MIC with 0.5 μg/ml of ND-11598): 0.125 µg/mL | MIC ([2]; NTM MAIC A5 (serotype 4), with 0.5 μg/ml of ND-11598, read-out: ND-11992 MIC with 0.5 μg/ml of ND-11598): 0.25 µg/mL | MIC ([2]; NTM MAIC Serovar #4, with 0.5 μg/ml of ND-11598, read-out: ND-11992 MIC with 0.5 μg/ml of ND-11598): 0.5 µg/mL | MIC ([2]; NTM MAIC Serovar #5, with 0.5 μg/ml of ND-11598, read-out: ND-11992 MIC with 0.5 μg/ml of ND-11598): 1 µg/mL | MIC ([2]; NTM MAIC Serovar #10, with 0.5 μg/ml of ND-11598, read-out: ND-11992 MIC with 0.5 μg/ml of ND-11598): 0.5 µg/mL | Activity (effect on MICs in combination) ([2]; ND-11992 with ND-11598, NTM MAIC Serovar #6): Additive

CCc1nc2ccc(Cl)cn2c1C(=O)NCc1ccc(N2CCC(c3ccc(OC(F)(F)F)cc3)CC2)cc1 [Q203]
type of efficacy (bactericidal/bacteriostatic) ([3]; dosed alone as single agents): bacteriostatic
